Results on 29 molecules are retold here after US20230374038A1, “MODULATORS OF CYSTIC FIBROSIS TRANSMEMBRANE CONDUCTANCE REGULATOR” (VERTEX PHARMACEUTICALS INCORPORATED, priority 2020, published 2023).

T1 sequence (P13569 with tags, fused parts or gaps DEL508-508): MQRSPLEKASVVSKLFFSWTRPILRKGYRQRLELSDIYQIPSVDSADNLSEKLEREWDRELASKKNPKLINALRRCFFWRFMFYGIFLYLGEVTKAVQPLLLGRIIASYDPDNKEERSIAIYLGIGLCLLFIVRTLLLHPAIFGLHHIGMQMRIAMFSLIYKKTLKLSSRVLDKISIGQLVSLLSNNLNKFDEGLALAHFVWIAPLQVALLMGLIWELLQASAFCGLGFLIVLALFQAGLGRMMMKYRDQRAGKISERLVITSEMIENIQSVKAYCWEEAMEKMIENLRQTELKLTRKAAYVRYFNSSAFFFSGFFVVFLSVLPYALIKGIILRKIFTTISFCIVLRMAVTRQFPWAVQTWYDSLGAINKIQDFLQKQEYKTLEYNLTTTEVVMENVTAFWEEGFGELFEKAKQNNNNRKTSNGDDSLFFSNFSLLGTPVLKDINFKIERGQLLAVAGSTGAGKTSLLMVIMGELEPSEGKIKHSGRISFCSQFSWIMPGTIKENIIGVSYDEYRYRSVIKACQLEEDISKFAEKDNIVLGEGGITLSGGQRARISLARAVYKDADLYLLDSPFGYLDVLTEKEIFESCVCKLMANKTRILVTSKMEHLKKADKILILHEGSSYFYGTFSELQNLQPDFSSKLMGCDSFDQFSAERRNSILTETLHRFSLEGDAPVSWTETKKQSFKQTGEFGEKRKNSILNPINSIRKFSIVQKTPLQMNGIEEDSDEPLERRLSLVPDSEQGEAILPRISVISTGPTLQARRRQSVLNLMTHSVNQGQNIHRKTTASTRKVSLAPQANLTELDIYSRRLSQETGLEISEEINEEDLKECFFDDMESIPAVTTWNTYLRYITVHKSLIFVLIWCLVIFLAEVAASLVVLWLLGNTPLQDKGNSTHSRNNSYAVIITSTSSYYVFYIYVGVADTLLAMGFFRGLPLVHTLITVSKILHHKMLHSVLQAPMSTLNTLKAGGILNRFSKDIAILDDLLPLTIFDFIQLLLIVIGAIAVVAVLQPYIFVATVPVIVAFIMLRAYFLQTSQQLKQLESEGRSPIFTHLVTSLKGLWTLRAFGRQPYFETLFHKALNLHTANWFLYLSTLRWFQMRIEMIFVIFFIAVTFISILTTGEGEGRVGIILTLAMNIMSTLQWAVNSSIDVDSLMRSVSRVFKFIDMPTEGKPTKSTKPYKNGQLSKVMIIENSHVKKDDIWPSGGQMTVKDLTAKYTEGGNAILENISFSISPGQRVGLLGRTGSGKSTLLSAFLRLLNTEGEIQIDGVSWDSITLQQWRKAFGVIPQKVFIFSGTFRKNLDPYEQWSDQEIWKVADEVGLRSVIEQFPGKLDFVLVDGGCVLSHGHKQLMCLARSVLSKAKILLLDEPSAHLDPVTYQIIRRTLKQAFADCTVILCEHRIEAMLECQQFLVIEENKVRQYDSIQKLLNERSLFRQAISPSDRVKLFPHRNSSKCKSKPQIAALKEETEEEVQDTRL

One assay addresses T1, CFTR (Homo sapiens, UniProt P13569, DEL508-508).
T1 construct: endogenous in cells; host or cells: primary human bronchial epithelial cells, F508del/MF genotype
The assay is described as follows: HBE Assay: Ussing chamber assay of CFTR-mediated short-circuit currents in F508del/MF-HBE cells with 1 μM Ivacaftor. To be noted: range of concentrations with 1 μM Ivacaftor, 18-24 hours, 20% human serum. It counts as cell-based. The gist of the method:
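F508del/MF-HBE cells at air-liquid interface >14 days were incubated 18-24 h at 37° C with corrector (concentration range or fixed 10 μM) plus 1 μM Ivacaftor in 20% human serum, compounds kept throughout. Ussing chamber, Vhold=0 mV, 37° C, apical amiloride 30 μM; ISC (μA/cm^2) from peak 20 μM forskolin response to steady state after CFTR inhibitor cocktail.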
Take `Cc1cccc(C)c1-c1nc2nc(c1F)OC[C@@H](CC(C)(C)C)N(Cc1ncc(OC(C)C)cn1)C(=O)c1cccc(c1)S(=O)(=O)N2` [Compound 335]: the EC50 (in general, the concentration giving half of the maximal effect) is less than 1 µM.

Turning to `Cc1cccc(CC(C)(C)C)c1-c1nc2nc(c1C)OC[C@@H](CC(C)(C)C)N(Cc1ncc(OC(C)C)cn1)C(=O)c1cccc(c1)S(=O)(=O)N2` (atropisomer, axis not shown) [Compound 351], the EC50 was less than 1 µM.

The assay is the same for the next values; noted with them: single fixed concentration of 10 μM with 1 μM Ivacaftor, 18-24 hours, 20% human serum.
Consider `Cc1cccc(CC(C)(C)C)c1-c1nc2nc(c1C)OC[C@@H](CC(C)(C)C)N(Cc1ncc(OC3CCC3)cn1)C(=O)c1cccc(c1)S(=O)(=O)N2` (atropisomer, axis not shown) [Compound 353], for which the “HBE Activity at 10 μM (%)” value was “+++ (+++ is >60%)”.

Regarding `Cc1cccc(CC(C)(C)C)c1-c1nc2nc(c1C)OC[C@@H](CC(C)(C)C)N(Cc1ncc(OC(C)C)cn1)C(=O)c1cccc(c1)S(=O)(=O)N2` (atropisomer, axis not shown) [Compound 351], the “HBE Activity at 10 μM (%)” value was “+++ (+++ is >60%)”.

Still in this assay, the particulars now being: single fixed concentration of 10 μM, with 1 μM Ivacaftor, 20% human serum.
With `Cc1cccc(CC(C)C)c1-c1nc2nc(c1C)OC[C@@H](CC(C)(C)C)NC(=O)c1cccc(c1)S(=O)(=O)N2` (atropisomer, axis not shown) [Compound 226], the “HBE Activity at 10 μM” value was “+++ (+++ is >600%)”.

For `Cc1cccc(CC2CCCC2)c1-c1nc2nc(c1C)OC[C@@H](CC(C)(C)C)N(Cc1ccc(N3CCOCC3)cn1)C(=O)c1cccc(c1)S(=O)(=O)N2` (atropisomer, axis not shown) [Compound 288], the “HBE Activity at 10 μM” value was “+++ (+++ is >600%)”.

As for `Cc1cccc(CC(C)C)c1-c1nc2nc(c1C(F)(F)F)OC[C@@H](CC(C)(C)C)N(Cc1ccc(N3CCOCC3)cn1)C(=O)c1cccc(c1)S(=O)(=O)N2` (atropisomer, axis not shown) [Compound 247], the “HBE Activity at 10 μM” value was “++ (++ is 30-60%)”.

Consider `Cc1cccc(CC(C)C)c1-c1nc2nc(c1C)OC[C@@H](CC(C)(C)C)N(Cc1ncc(N(C)CC(C)(C)C)cn1)C(=O)c1cccc(c1)S(=O)(=O)N2` (atropisomer, axis not shown; (M)) [Compound 210, (5M,11R)-11-(2,2-dimethylpropyl)-12-({5-[(2,2-dimethylpropyl)(methyl)amino]pyrimidin-2-yl}methyl)-7-methyl-6-[2-methyl-6-(2-methylpropyl)phenyl]-9-oxa-2λ^6-thia-3,5,12,19-tetraazatricyclo[12.3.1.14,8]nonadeca-1(17),4(19),5,7,14(18),15-hexaene-2,2,13-trione], for which the “HBE Activity at 10 μM” value is recorded as “+++ (+++ is >600%)”.

For `Cc1cccc(C(C)C)c1-c1nc2nc(c1C)OC[C@@H](CC(C)(C)C)N(Cc1cnc(C3CCOCC3)cn1)C(=O)c1cccc(c1)S(=O)(=O)N2` (atropisomer, axis not shown) [Compound 319], the “HBE Activity at 10 μM” value is recorded as “+++ (+++ is >600%)”.

For `Cc1cccc(CC2CCCCC2)c1-c1nc2nc(c1C(F)(F)F)OC[C@@H](CC(C)(C)C)N(Cc1ccc(N3CCOCC3)cn1)C(=O)c1cccc(c1)S(=O)(=O)N2` (atropisomer, axis not shown) [Compound 249], the “HBE Activity at 10 μM” value is given as “++ (++ is 30-60%)”.

In the case of `Cc1cccc(CC2CCOCC2)c1-c1nc2nc(c1C)OC[C@@H](CC(C)(C)C)N(Cc1ncc(N3CCC(C)(C)C3)cn1)C(=O)c1cccc(c1)S(=O)(=O)N2` (atropisomer, axis not shown) [Compound 271], the “HBE Activity at 10 μM” value is listed as “+++ (+++ is >600%)”.

The assay is the same for the next values; noted with them: with 1 μM Ivacaftor, 18-24 hours, 20% human serum.
With `Cc1cccc(C(C)C)c1-c1nc2nc(c1C)OC[C@@H](CC(C)(C)C)N(Cc1ncc(N3CCOCC3)cn1)C(=O)c1cccc(c1)S(=O)(=O)N2` (single isomer, unassigned) [Compound 208], the EC50 is less than 1 µM and the “HBE Max Activity” value was “+++ (+++ is >600%)”.

Turning to `Cc1cccc(CC2CCCCC2)c1-c1nc2nc(c1C)OC[C@@H](CC(C)(C)C)N(Cc1ccc(OC(C)C)cn1)C(=O)c1cccc(c1)S(=O)(=O)N2` (atropisomer, axis not shown) [Compound 279], the EC50 was in the range of 1 to 3 µM and the “HBE Max Activity” value is recorded as “+++ (+++ is >600%)”.

Take `Cc1cccc(CC(C)C)c1-c1nc2nc(c1C)OC[C@@H](C(C)C)N(Cc1ncc(N3CCC(C)(C)C3)cn1)C(=O)c1cccc(c1)S(=O)(=O)N2` [Compound 240]: the concentration giving a half-maximal response (EC50) fell in the range of 1 to 3 µM and the “HBE Max Activity” value was “+++ (+++ is >600%)”.

Consider `CCc1cccc(C)c1-c1nc2nc(c1C)OC[C@@H](CC(C)(C)C)N(Cc1ccc(N3CCOCC3)cn1)C(=O)c1cccc(c1)S(=O)(=O)N2` (atropisomer, axis not shown) [Compound 287], for which the 50% effective concentration (EC50) was less than 1 µM and the “HBE Max Activity” value is “+++ (+++ is >600%)”.

As for `Cc1cccc(C)c1-c1nc2nc(c1C)OC[C@@H](CC(C)C)N(Cc1ncc(N3CCC(C)(C)CC3)cn1)C(=O)c1cccc(c1)S(=O)(=O)N2` [Compound 198], the EC50 was less than 1 µM and the “HBE Max Activity” value is reported as “+++ (+++ is >600%)”.

As for `Cc1cccc(CC(C)C)c1-c1nc2nc(c1C)OC[C@@H](CC(C)(C)C)N(Cc1ncc(OC(C)C)cn1)C(=O)c1cccc(c1)S(=O)(=O)N2` (atropisomer, axis not shown) [Compound 233], the EC50 was less than 1 µM and the “HBE Max Activity” value is on record as “+++ (+++ is >600%)”.

`Cc1c2nc(nc1-c1ccccc1C(C)(C)C)NS(=O)(=O)c1cccc(c1)C(=O)N(Cc1ccc(N3CCOCC3)cn1)[C@H](CC(C)(C)C)CO2` [Compound 181]: the EC50 was less than 1 µM and the “HBE Max Activity” value is on record as “+++ (+++ is >600%)”.

Consider `Cc1cccc(C2CC2)c1-c1nc2nc(c1C)OC[C@@H](CC(C)(C)C)N(Cc1ccc(N3CCOCC3)cn1)C(=O)c1cccc(c1)S(=O)(=O)N2` (atropisomer, axis not shown) [Compound 228], for which the EC50 was less than 1 µM and the “HBE Max Activity” value is “+++ (+++ is >600%)”.

Turning to `Cc1cccc(CC2CCCCC2)c1-c1nc2nc(c1C(F)(F)F)OC[C@@H](CC(C)(C)C)N(Cc1ncc(N3CCOCC3)cn1)C(=O)c1cccc(c1)S(=O)(=O)N2` (atropisomer, axis not shown) [Compound 244], the EC50 is less than 1 µM and the “HBE Max Activity” value is “+++ (+++ is >600%)”.

Take `COCCN(C)c1ccc(CN2C(=O)c3cccc(c3)S(=O)(=O)Nc3nc(c(C)c(-c4c(C)cccc4CC(C)C)n3)OC[C@H]2CC(C)(C)C)nc1` (atropisomer, axis not shown) [Compound 292]: the EC50 is less than 1 µM and the “HBE Max Activity” value was “+++ (+++ is >600%)”.

`CCc1cccc(C)c1-c1nc2nc(c1C)OC[C@@H](CC(C)(C)C)N(Cc1ccc(N3CCOCC3)cn1)C(=O)c1cccc(c1)S(=O)(=O)N2` (atropisomer, axis not shown) [Compound 286]: the EC50 is less than 1 µM and the “HBE Max Activity” value is “+++ (+++ is >600%)”.

Take `Cc1cccc(CC(C)C)c1-c1nc2nc(c1C(F)(F)F)OC[C@@H](CC(C)(C)C)N(Cc1ccc(N3CCOCC3)cn1)C(=O)c1cccc(c1)S(=O)(=O)N2` (atropisomer, axis not shown) [Compound 246]: the EC50 was less than 1 µM and the “HBE Max Activity” value is listed as “+++ (+++ is >600%)”.

Consider `COCCN(C)c1cnc(CN2C(=O)c3cccc(c3)S(=O)(=O)Nc3nc(c(C)c(-c4c(C)cccc4CC4CCCCC4)n3)OC[C@H]2CC(C)(C)C)nc1` [Compound 283], for which the EC50 was less than 1 µM and the “HBE Max Activity” value was “+++ (+++ is >600%)”.

Turning to `Cc1cccc(CC2CCCCC2)c1-c1nc2nc(c1C)OC[C@@H](CC(C)(C)C)N(Cc1nccc(C(C)C)n1)C(=O)c1cccc(c1)S(=O)(=O)N2` [Compound 250], the EC50 is less than 1 µM and the “HBE Max Activity” value was “+++ (+++ is >600%)”.

Turning to `Cc1cccc(CC2CCCC2)c1-c1nc2nc(c1C)OC[C@@H](CC(C)(C)C)N(Cc1ccc(N3CCOCC3)cn1)C(=O)c1cccc(c1)S(=O)(=O)N2` (atropisomer, axis not shown) [Compound 289], the EC50 is less than 1 µM and the “HBE Max Activity” value is listed as “+++ (+++ is >600%)”.

Turning to `Cc1cccc(C)c1-c1nc2nc(c1C)OC[C@@H](CC(C)(C)C)N(c1cnn(C)c1Br)C(=O)c1cccc(c1)S(=O)(=O)N2` [Compound 56, (11R)-12-(5-Bromo-1-methyl-pyrazol-4-yl)-6-(2,6-dimethylphenyl)-11-(2,2-dimethylpropyl)-7-methyl-2,2-dioxo-9-oxa-2λ^6-thia-3,5,12,19-tetrazatricyclo[12.3.1.14,8]nonadeca-1(18),4(19),5,7,14,16-hexaen-13-one], the EC50 is less than 1 µM and the “HBE Max Activity” value is recorded as “+++ (+++ is >600%)”.

For `Cc1cccc(C)c1-c1nc2nc(c1C)OC[C@@H](CC(C)(C)C)N(Cc1ncc(N3CCC(C)(C)C3)cn1)C(=O)c1cccc(c1)S(=O)(=O)N2` [Compound 191], the concentration for a half-maximal effect (EC50) was less than 1 µM and the “HBE Max Activity” value is on record as “+++ (+++ is >600%)”.

Regarding `Cc1cccc(CC(C)C)c1-c1nc2nc(c1C)OC[C@@H](CC(C)C)N(Cc1cnc(C3CCOCC3)cn1)C(=O)c1cccc(c1)S(=O)(=O)N2` (atropisomer, axis not shown) [Compound 314], the EC50 was less than 1 µM and the “HBE Max Activity” value was “+++ (+++ is >600%)”.

Take `Cc1cccc(CC(C)C)c1-c1nc2nc(c1C)OC[C@@H](CC(C)(C)C)N(Cc1cncc(N(C)C(C)C)n1)C(=O)c1cccc(c1)S(=O)(=O)N2` (atropisomer, axis not shown) [Compound 238]: the EC50 is less than 1 µM and the “HBE Max Activity” value is recorded as “+++ (+++ is >600%)”.

The same assay, now with this note: with 1 μM Ivacaftor, 18-24 hours, 20% human serum, compared to known Vertex corrector with 18 μM Tezacaftor and 1 μM Ivacaftor, read-out: HBE Max activity (%).
With `Cc1cccc(C)c1-c1nc2nc(c1F)OC[C@@H](CC(C)(C)C)N(Cc1ncc(OC(C)C)cn1)C(=O)c1cccc(c1)S(=O)(=O)N2` [Compound 335], the Emax is more than 60%.

`Cc1cccc(CC(C)(C)C)c1-c1nc2nc(c1C)OC[C@@H](CC(C)(C)C)N(Cc1ncc(OC(C)C)cn1)C(=O)c1cccc(c1)S(=O)(=O)N2` (atropisomer, axis not shown) [Compound 351]: the Emax is more than 60%.
